For 91 compounds, IC50 results are on record in PubChem BioAssay AID1645866 (Buhrlage Lab, Dana-Farber Cancer Institute and Novartis …, 2021).

The term IC50 denotes the point on the concentration scale where inhibition reaches its midpoint.

Structures are written as SMILES. Active and inactive are the calls of the source.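 The calls were made as follows: active = in confirmatory dose-response testing, peak deubiquitinase inhibition of 30% or more; inactive = the rest.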 Bounds are passed on as bounds.

In the assay the target is Ubiquitin carboxyl-terminal hydrolase 28 (Homo sapiens) (UniProt Q96RU2). In words: Ubiquitin-specific peptidase 28 DUB inhibitors, biochemical concentration-dependence assay, validation of primary screening hits (AID 1645866). The following applies: purified USP28, ubiquitin-rhodamine fluorescence, 30 min.
Chain of Ubiquitin carboxyl-terminal hydrolase 28 (Homo sapiens) (Q96RU2 whole entry, looked up): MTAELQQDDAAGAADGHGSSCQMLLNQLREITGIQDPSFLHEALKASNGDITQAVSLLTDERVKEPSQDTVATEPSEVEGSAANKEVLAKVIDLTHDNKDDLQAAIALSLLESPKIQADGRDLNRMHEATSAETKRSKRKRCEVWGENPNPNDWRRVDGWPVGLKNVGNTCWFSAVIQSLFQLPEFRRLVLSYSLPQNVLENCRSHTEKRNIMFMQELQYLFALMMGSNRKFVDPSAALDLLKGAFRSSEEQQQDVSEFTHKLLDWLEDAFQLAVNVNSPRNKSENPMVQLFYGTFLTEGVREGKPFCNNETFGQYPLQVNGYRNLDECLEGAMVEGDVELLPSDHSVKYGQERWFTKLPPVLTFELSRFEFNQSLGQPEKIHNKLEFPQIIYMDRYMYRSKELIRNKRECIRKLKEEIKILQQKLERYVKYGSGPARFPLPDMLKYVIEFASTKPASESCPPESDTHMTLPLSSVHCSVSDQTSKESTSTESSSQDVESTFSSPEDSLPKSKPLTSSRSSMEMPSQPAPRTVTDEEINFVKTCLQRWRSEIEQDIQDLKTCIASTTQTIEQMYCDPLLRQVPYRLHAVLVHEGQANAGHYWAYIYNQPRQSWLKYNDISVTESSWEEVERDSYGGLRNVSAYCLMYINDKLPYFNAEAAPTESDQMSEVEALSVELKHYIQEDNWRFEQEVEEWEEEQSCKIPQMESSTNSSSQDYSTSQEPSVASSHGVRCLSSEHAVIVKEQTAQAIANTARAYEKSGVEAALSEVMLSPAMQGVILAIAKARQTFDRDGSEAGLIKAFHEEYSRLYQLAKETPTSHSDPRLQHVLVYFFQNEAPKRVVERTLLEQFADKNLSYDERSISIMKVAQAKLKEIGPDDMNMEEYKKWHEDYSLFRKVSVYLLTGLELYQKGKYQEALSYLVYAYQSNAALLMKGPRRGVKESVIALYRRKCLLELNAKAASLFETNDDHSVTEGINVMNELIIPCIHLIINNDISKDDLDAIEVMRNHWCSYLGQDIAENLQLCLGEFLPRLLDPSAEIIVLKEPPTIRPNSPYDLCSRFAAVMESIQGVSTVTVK
For `CCOC(=O)c1nc(Nc2ccc(OC)c(Cl)c2)c2ccccc2n1`, the IC50 was 26.5 µM.
As to `COC1=C(C2=C(OC)C(=O)c3cc4c(c(O)c3C2=O)C(=O)OC(C)C4)C(=O)c2c(cc3c(c2O)C(=O)OC(C)C3)C1=O` (stereo unspecified), the IC50 is 1.05 µM.
As to `COc1cccc(NC(=O)c2cnc3c(c2)c(=O)n(C)c(=O)n3C)c1`, the half-inhibitory concentration (IC50) is 2.43 µM.
In the case of `CCOc1ccc(-c2noc(-c3nn(-c4cccc(OC)c4)ccc3=O)n2)cc1`, the 50% inhibitory concentration (IC50) was 4.44 µM.
As for `Cn1c2ccccc2c(=O)c2c(=O)n(Cc3ccccc3)c(-c3ccco3)nc21`, the concentration for half-maximal inhibition (IC50) was 1.23 µM.
Regarding `Cc1ccc(-c2nc(NC(=O)COc3ccc(Cl)cc3)no2)cc1`, the 50% inhibitory concentration (IC50) is 4.74 µM.
Turning to `COc1ccc(OC)c(NC(=O)c2ccc(-n3nnnc3SC)cc2)c1`, the 50% inhibitory concentration (IC50) was 22.6 µM.
Then `Cc1ccc2nc(NC(=O)CSc3nnc(-c4ccncc4)n3C3CC3)sc2c1`, with 4.17 µM; and `COc1ccccc1Nc1ncc(C(=O)NCCc2ccc(Cl)cc2)c2ccccc12`, with 4.31 µM.
As for `O=c1[nH]c2ccc(S(=O)(=O)Nc3ccc(O)c4ccccc34)cc2[nH]1`, the concentration for half-maximal inhibition (IC50) is 20 µM.
On to `Cc1ccc(C(=O)NCc2ccc(C(=O)Nc3cccc(C)c3)o2)cc1`, for which the IC50 was 28.1 µM.
Turning to `Cc1ccc2c(=O)c3c([nH]c2c1C)CCN(CC(=O)NCc1ccccc1)C3`, the IC50 is > 50 µM (inactive).
Regarding `Cc1ccc2cc(CNc3ccccc3)c(=O)n(CC(=O)Nc3ccccc3C)c2c1`, the half-inhibitory concentration (IC50) is 18.6 µM.
Consider `CCCc1nc2sc3c(NC4CCCCC4)ncnc3c2c2c1CCC2`, for which the IC50 was less than 0.05 µM.
Consider `Cc1cc(/C=C2/C(=N)N3C(c4ccccc4)=CSC3=NC2=O)c(C)n1-c1ccc2ccccc2c1`, for which the IC50 is > 50 µM (inactive).
`COc1cccc(NC(=O)Nc2nccn(-c3ccc(F)cc3)c2=O)c1`: the half-maximal inhibitory concentration (IC50) is 18.3 µM.
As to `O=C(Nc1ccc(N2CCOCC2)cc1)c1cc(=O)[nH]c2ccccc12`, the IC50 was 25.4 µM.
For `Cc1nnc(Sc2cc(C(=O)NCCN3CCCC3)c3ccccc3n2)s1` the value was > 50 µM (inactive); for `N#Cc1c(Cl)cccc1Oc1ccc(S(=O)(=O)N2CCC(O)CC2)cc1`, 19.5 µM.
As for `COc1ccc(C2SCC(=O)Nc3c2c(=O)[nH]n3C2CCCCCC2)cc1` (stereo unspecified), the IC50 is 25.7 µM.
For the compound `CC(=O)Nc1ccc(Cc2nc(-c3ccc4c(c3)nc(C)c(=O)n4C3CCCC3)no2)cc1`, the IC50 is > 50 µM (inactive).
As for `Cc1nn(-c2ccc(F)cc2)cc1-c1noc(C(=O)NCc2ccccn2)n1`, the half-maximal inhibitory concentration (IC50) is 22.8 µM.
Then `CSc1ncc(C(=O)NC(C)c2ccccc2)c(-c2ccccc2)n1` (stereo unspecified), with 18.5 µM; and `Cc1ncncc1C(=O)N1CCCC(C)(c2ncc(Cc3cccc(F)c3)o2)C1` (stereo unspecified), with > 50 µM (inactive).
Turning to `Cc1cc(C)nc(SCCn2c(N3CCC(Cc4ccccc4)CC3)nc3c2c(=O)n(C)c(=O)n3C)n1`, the IC50 is > 50 µM (inactive).
On to `Cc1ccc(S(=O)(=O)N2CCCCC2)cc1NC(=O)Cc1cccc(F)c1`, for which the IC50 is 5.05 µM.
Regarding `CCn1c(=O)c(=O)[nH]c2cc(C(=O)Nc3cccc(-c4csc(C)n4)c3)ccc21`, the IC50 was 1.99 µM.
Then `CCC(C)Oc1cccc(C(=O)Nc2ccc(CN3CCOCC3)cc2)c1` (stereo unspecified), with 1.74 µM; and `CCc1c(C)c(C#N)c2nc3ccccc3n2c1N1CCN(C2CCCC2)CC1`, with 12.3 µM.
`O=C(CNC(=O)c1cc2ccccc2[nH]1)Nc1ccc2c(c1)OCCO2`: the half-maximal inhibitory concentration (IC50) was 45.9 µM.
On to `CCOc1ccc(-n2c(C)cc(/C=C(\C#N)c3nc4ccccc4[nH]3)c2C)cc1`, for which the IC50 was > 50 µM (inactive).
Turning to `CN1CCN(C(=O)c2cc(-c3ccn(-c4ccccc4)n3)n3ccccc23)CC1`, the IC50 was > 50 µM (inactive).
For `COc1ccc(C2CC(=O)Nc3n[nH]c(-c4ccccc4)c32)cc1OC` (stereo unspecified) the value was 33.7 µM; for `Cc1nc2ccccn2c1C1(O)C(=O)Nc2c(Cl)cc(Cl)cc21` (stereo unspecified), > 50 µM (inactive); for `COc1cccc(NC(=O)CSc2nnc(-c3cc4cccc(OC)c4o3)n2C)c1`, 14.6 µM.
Take `CCn1c(CN2CCCC(c3nc(-c4cccnc4)n[nH]3)C2)nc2ccccc21` (stereo unspecified): the IC50 is 3.13 µM.
Then `NC(=O)CCC(=O)N[C@H]1C[C@H]2CN(Cc3ccccc3)c3ccccc3CN2C1`, with > 50 µM (inactive).
For `COc1ccc(C2C(C(=O)Nc3ccccc3OC)=C(C)Nc3nnnn32)cc1Br` (stereo unspecified) the value was 23.2 µM; for `O=C1Nc2ccccc2C(=O)C1C(c1ccc(Cl)cc1)C1C(=O)Nc2ccccc2C1=O` (stereo unspecified), 28.6 µM.
Regarding `CCn1c(=O)c2ccccc2n(Cc2nc(-c3ccccc3OC)no2)c1=O`, the IC50 is > 50 µM (inactive).
For `COc1cccc(/C=C/C(=O)Nc2ccc(C)c(Cl)c2)c1` the value was 5.79 µM; for `COc1cccc(NC(=O)c2nnn(-c3ccccc3)n2)c1`, 7.33 µM.
Turning to `Cc1noc(C)c1S(=O)(=O)Nc1ccc(C(=O)Nc2ccc3c(c2)OCCO3)cc1`, the IC50 was 3.82 µM.
For `Cc1ccc2cccc(OCc3nnc(SCC(=O)c4ccc(Cl)cc4)n3C)c2n1`, the 50% inhibitory concentration (IC50) was 4.77 µM.
For `N#C/C(=C/c1sc(N2CCOCC2)nc1-c1ccccc1)c1ccccn1`, the IC50 is > 50 µM (inactive).
Then `O=c1c(S(=O)(=O)c2cc(F)cc(F)c2)c[nH]c2cc(Cl)ccc12`, with 20.6 µM.
With `Nc1ccc(F)c(NS(=O)(=O)c2ccccc2)c1`, the IC50 is > 50 µM (inactive).
Regarding `COc1ccc(NC(=O)c2nnn(-c3ccccc3)c2C)cc1OC`, the IC50 was 11.6 µM.
As to `COC1C(O)=C2C(=O)O/C(C)=C/C=C/C=C/C=C/CC(c3ccccc3)NC(=O)/C=C/C=C/C=C\C=C\C2(C)C1O` (stereo unspecified), the IC50 was > 50 µM (inactive).
For `O=c1c2ccccc2oc2nc(-c3cccs3)n(-c3ccccc3)c(=O)c12` the value was 2.12 µM; for `O=C(Cn1nnc(-c2ccc(F)cc2)n1)NCCc1ccccc1`, 44.3 µM; for `Cc1ccn(-c2ccc(NC(=O)C3CCCCC3)cc2)n1`, 22.6 µM.
For `O=C(NC1CCN(Cc2ccccc2)CC1)c1[nH]nc2c1CCc1ccccc1-2` the value was 6.27 µM; for `COc1ccc(NC(=O)CN2CCN(c3ccc(C(C)=O)cc3)CC2)cc1S(=O)(=O)N1CCCCC1`, 40.4 µM; for `Cc1ccc(NC(=O)CCC(=O)Nc2ccc3nc(N4CCCCC4)cc(C)c3c2)c(Br)c1`, 22.7 µM.
For the compound `COc1ccc(Cl)cc1-n1nnc(C(=O)N2CCc3ccccc3C2)c1C`, the IC50 was > 50 µM (inactive).
As to `Cc1cccc(COc2ccc(C3SCC(=O)Nc4n[nH]c(C)c43)cc2)c1` (stereo unspecified), the IC50 is 5.31 µM.
On to `COc1cc(=O)c(C(=O)Nc2ccc(C#N)cc2)nn1-c1cccc(F)c1`, for which the IC50 is 20.7 µM.
Consider `O=C(Nc1cccc(Cl)c1)N1CCC(c2cc(-c3ccco3)n[nH]2)CC1`, for which the IC50 is 4.68 µM.
For `CC1CCc2c(sc3ncnc(NC4CCN(CC(N)=O)CC4)c23)C1` (stereo unspecified), the IC50 was > 50 µM (inactive).
Consider `O=C(CNC(=O)c1cc2ccccc2o1)Nc1ccc2c(c1)OCCO2`, for which the IC50 was 18.3 µM.
For `O=S(=O)(c1cccc2cccnc12)N(CCc1ccccc1)C1CCN(CCc2ccc(Cl)cc2)CC1` the value was > 50 µM (inactive); for `O=C(Cn1c(=O)n(-c2ccccc2)c(=O)c2ccc(C(=O)NCc3ccc4c(c3)OCO4)cc21)NCCC1=CCCCC1`, 15.7 µM.
As for `COc1c2c(cc3cc(O)c4c(=O)cc(C)oc4c13)CCC2=O`, the IC50 is 28.8 µM.
As to `COc1ccccc1NS(=O)(=O)c1cccc(NC(=O)CCc2nc3ccccc3s2)c1`, the half-maximal inhibitory concentration (IC50) is 13.3 µM.
In the case of `Cc1cc(CSc2ncccc2C(=O)Nc2ccnn2Cc2cccnc2)no1`, the IC50 is > 50 µM (inactive).
Turning to `Cc1ccccc1C(=O)c1ccc(C(=O)NC2CCCCCC2)[nH]1`, the half-maximal inhibitory concentration (IC50) is 7.45 µM.
Then `COc1ccc(Cl)c(NC(=O)C2CC(=O)Nc3cc(-c4ccccc4)nn32)c1` (stereo unspecified), with 17.3 µM.
Regarding `O=S(=O)(Nc1ccc2oc(-c3ccncc3)nc2c1)c1ccccc1`, the half-inhibitory concentration (IC50) is 40.8 µM.
For the compound `Cc1ccc(NC(=O)Cc2nnc3cc(-c4nc(C)no4)ccn23)cc1`, the 50% inhibitory concentration (IC50) was 5.02 µM.
For `CC(=O)Nc1cc2cc(-n3cccc3)ccc2oc1=O` the value was 24.9 µM.
As for `CCOC(=O)c1c(C)nc2n(Cc3ccccc3)c3ccccc3n12`, the 50% inhibitory concentration (IC50) is 21.7 µM.
With `c1ccc2c(Cc3nc(-c4ccncc4)no3)cccc2c1`, the IC50 is 0.374 µM.
Take `O=C(Cn1c(NCc2ccccc2)nc2ccccc21)NCC(F)(F)F`: the half-inhibitory concentration (IC50) was 46.6 µM.
`Nc1c(C(=O)NCc2ccc3c(c2)OCO3)nnn1Cc1ccc(Br)cc1F`: the IC50 was 5.37 µM.
Regarding `O=C(COc1ccccc1-c1nnc(-c2ccccc2)o1)Nc1ccc(F)cc1F`, the IC50 is 3.36 µM.
`O=C(CN1CCCCC1)Nc1nnc(-c2ccc([N+](=O)[O-])cc2)s1`: the 50% inhibitory concentration (IC50) was 14 µM.
For `COc1ccc(Cn2cnc3c([nH]c4ccc(Br)cc43)c2=O)cc1`, the IC50 was 1.72 µM.
Regarding `O=C(Nc1ccc2c(c1)OCCO2)c1cc(CN2CCCC2)on1`, the IC50 is 9.81 µM.
For `Cc1ccc(Cn2nnc(-c3ccccc3Cl)n2)cc1` the value was 13.9 µM; for `COc1ccccc1C(=O)NCC(c1ccc2c(c1)CCCN2C)N1CCCC1` (stereo unspecified), > 50 µM (inactive); for `O=C(CCCc1c[nH]c2ccccc12)Nc1ccc2c(c1)OCCO2`, 4.42 µM.
For `COc1cccc2c1OCC(NS(=O)(=O)c1cc(C)ccc1C)C2` (stereo unspecified) the value was > 50 µM (inactive); for `Cc1cc(O)cc2cc3c(c(O)c12)C(=O)CCC3O` (stereo unspecified), > 50 µM (inactive); for `CCCCN1CC(C(=O)Nc2ccc(C(=O)Nc3ccc(F)c(Cl)c3)cc2)CC1=O` (stereo unspecified), 34.2 µM.
Then `O=C(CC1C(=O)Nc2nc(-c3ccccc3)nn21)Nc1cccc2ccccc12` (stereo unspecified), with 15 µM; and `CCN(Cc1ccccc1)S(=O)(=O)c1ccc(C(=O)Nc2ccc3c(c2)OCCO3)cc1`, with 5.98 µM.
In the case of `Cc1cc(C)c2cc(C(=O)NC3CCN(Cc4ccccc4)CC3)[nH]c2c1`, the IC50 was 13.8 µM.
In the case of `COc1ccc(CCNC(=O)CCCn2c(SCC(=O)NCc3ccco3)nc3ccccc3c2=O)cc1OC`, the IC50 was 35.7 µM.
Regarding `COCC(C)Nc1ncc(-c2cnccn2)c(-c2ccc(C)s2)n1` (stereo unspecified), the IC50 was > 50 µM (inactive).
Turning to `CC(=O)N1CCc2cc(S(=O)(=O)NCCC(=O)Nc3cccc(C)c3C)ccc21`, the concentration for half-maximal inhibition (IC50) was 34 µM.
